Measurements as given in ChEMBL document CHEMBL1159242, “Studies on the inhibitory effects of caffeoylquinic acids on monocyte migration and superoxide ion production” (J Nat Prod, 1995).
Activity calls are given as the source filed them. The calls are words filed in the database; no cut-off is given here.

Columns and labels:
[1] = Cytotoxicity against human monocytes measured by LDH activity; format: cell-based; conditions: monocyte
Monocyte [2] = experiment: Inhibition of healthy human monocyte migration assessed as chemotactic index at 0.01 nM after 45 mins; format: functional, cell-based
Monocyte [3] = experiment: Inhibition of healthy human monocyte migration assessed as chemotactic index at 0.1 pM after 45 mins; format: functional, cell-based
Monocyte [4] = experiment: Inhibition of healthy human monocyte migration assessed as chemotactic index at 0.001 to 0.00001 pM; format: functional, cell-based
Monocyte [5] = experiment: Inhibition of healthy human monocyte migration assessed as chemotactic index at 0.001 to 0.00001 pM after >45 mins; format: functional, cell-based
Monocyte [6] = experiment: Inhibition of O2- radical production in zymosan-stimulated healthy human monocyte measured after 1 hr at 37 degC; format: functional, cell-based
Monocyte [7] = experiment: Inhibition of O2- radical production in zymosan-stimulated healthy human monocyte measured after 45 mins at 37 degC; format: functional, cell-based
Monocyte [8] = experiment: Inhibition of O2- radical production in zymosan-stimulated healthy human monocyte assessed as increase in H2O production after 1 hr at 37 degC; format: functional, cell-based
Monocyte [9] = experiment: Inhibition of O2- radical production in zymosan-stimulated healthy human monocyte assessed as inhibition H2O2 production after 1 hr at 37 degC; format: functional, cell-based
Monocyte [10] = experiment: Inhibition of healthy human monocyte migration assessed as chemotactic index at 100 nM after 45 mins; format: functional, cell-based

With `O=C(/C=C/c1ccc(O)c(O)c1)O[C@@H]1C[C@](O)(C(=O)O)C[C@@H](OC(=O)/C=C/c2ccc(O)c(O)c2)[C@H]1OC(=O)/C=C/c1ccc(O)c(O)c1` the Activity [1] was “Non-toxic”.
With `O=C(/C=C/c1ccc(O)c(O)c1)O[C@@H]1C[C@](O)(C(=O)O)C[C@@H](OC(=O)/C=C/c2ccc(O)c(O)c2)[C@H]1O` the Activity (Monocyte [2]) was “Active”, the Activity (Monocyte [3]) was “Active” and the Activity (Monocyte [4]) was “Active”. The Activity (Monocyte [5]) was “inactive”, the Activity (Monocyte [6]) was “Dose-dependent effect” and the Activity (Monocyte [7]) was “Active”. The Activity (Monocyte [8]) was “Active”, the Activity (Monocyte [9]) was “Active” and the Activity [1] was “Non-toxic”.
In the case of `O=C(/C=C/c1ccc(O)c(O)c1)O[C@H]1[C@H](O)C[C@](O)(C(=O)O)C[C@H]1OC(=O)/C=C/c1ccc(O)c(O)c1`, the Activity (Monocyte [10]) is reported as “inactive”, the Activity (Monocyte [6]) is reported as “Dose-dependent effect” and the Activity [1] is reported as “Non-toxic”.
